In patent US20080103205A1, “Pesticidal compositions and methods of use” (priority 2006, published 2008):
“And” between values parts separate entries of the source, which are not always exact repeats. Equal values may be shown once. Read-outs that look alike come from different tables or passages of the source.

Legend:
Assay type in all cases: in vivo
[1] = tested on: Meloidogyne incognita eggs; experiment: M. incognita egg hatching
Protocol: Meloidogyne incognita (plant parasitic nematode) eggs were collected from tomato plant roots and were suspended in water. The solution was either diluted or concentrated to adjust the egg load to about 5000/ml. AT stock solutions prepared in DMSO and 300 ul of test solution was placed in a well, along with 20 ul of aqueous solution containing eggs. The number of eggs in 20 ul solution ranged from 115 to 143 (n=10). Each treatment (2, 5, 10, 20, or 40 ppm) was replicated 5 times. Microplates were sealed with Parafilm™ and incubated at room temperature. Similar tests conducted with 0.2% DMSO alone served as controls. Egg hatching was monitored at 24, 72, 120, and 168 hr after incubation. Both moving and non-moving nematodes were counted to arrive at the number of eggs hatched. Proportion of egg hatch was calculated as the number of juveniles divided by total number of eggs.
VSCC blockers effect on M. incognita egg hatching is shown in the following tables where % hatched is rounded to the nearest percentage point and where “% C*” is % hatch, normalized to control.

[2] = tested on: Drosophila melanogaster; experiment: Toxicity against adult Drosophila melanogaster, sugar solution feeding
Protocol: Toxicity tests were conducted using mixed sex adults of D. melanogaster maintained on artificial diet in the department of entomology, Virginia Tech. Test concentrations of 6.25, 12.5, 25, 50 or 100 ppm were prepared in 0.2% dimethyl sulfoxide (DMSO) for DIDS, 9-AC, NPPB, and IAA-94. The above final concentrations were obtained after mixing them in 10 ml of 10% sugar solution. Similar preparations with 0.2% DMSO alone served as controls. One end of a cotton wick was dipped in 0.5 ml of sugar solution and placed on the glass vial containing 10 adult flies of mixed sex. Each concentration of test chemical had 5 replications. Mortality counts of flies were taken 24, 48, and 72 hrs after treatment. Insects without movement upon probing were considered dead. LC50 values and confidence intervals for each chemical were estimated using POLO PLUS software program. The data provided in Tables 3-A and 3-B below confirm that AT blockers are toxic to insects in acute exposures.

[3] = tested on: European corn borer (Ostrinia nubilalis); experiment: Diet surface test on European corn borer larvae (2nd instar); conditions: for mortality at 6.25 ppm / mortality at 12.5 ppm / mortality at 25 ppm / mortality at 50 ppm: Ostrinia nubilalis, read-out: % Mortality
Protocol: Concentrations of 6.25, 12.5, 25, or 50 ppm AT blocker were prepared in 95% ethyl alcohol (EtOH). 95% EtOH alone served as control. European corn borer (ECB) diet prepared from the powdered diet supplied by French Agricultural Research, Inc. Diet (1-2 ml) was poured into small cups and allowed to cool to room temperature. Test solution (100 ul) was placed onto the diet surface and allowed to evaporate the solvent. Each concentration of chemical had 2 sets of 10 cups each. One late 2nd instar larva was placed in each cup and covered with lid having perforations for aeration. Cups were placed in an incubator for 7 days at 25±1° C. and 70±5% RH. After seven days, the weight of each larva was taken and any mortality was recorded. Then, the surviving larvae were transferred to fresh diet cups holding sufficient diet (5-6 ml) without chemicals and incubated at 25±1° C. and 70±5% RH until pupation. Weights of larvae were taken 14 days after transferring to fresh diet (21 days after start of treatment). Finally, the number of days until pupation was recorded.
Anion transporters caused larval death and a reduction in weight gain within 7 days exposure. The effect persisted for 2 weeks time on untreated diet, but total time to pupation was relatively unaffected.

[4] = tested on: M. incognita; experiment: Initial petri dish toxicity assay, M. incognita; conditions: Meloidogyne incognita; 100 ppm for 24 hr
Excerpt: The stilbene nucleus is a simple chemical scaffold, and excellent gains in potency can be envisioned from appropriate chemical modification. In addition, other compounds having a similar mode of action have been described, including NPPB, IAA-94, and 9-AC (FIGS. 1-3). This Example 1 describes further toxicity studies with these compounds.

[5] = 6.25 ppm, 21 days after feeding
[6] = 12.5 ppm, 21 days after feeding
[7] = 50 ppm, 7 days after feeding, 10 larvae treated
[8] = 50 ppm, 21 days after feeding, 10 larvae treated

O=S(=O)(O)c1cc(N=C=S)ccc1/C=C/c1ccc(N=C=S)cc1S(=O)(=O)O [DIDS, trans-4,4′-diisothiocyanatostilbene-2,2′-disulfonic acid, reference compound]
Eggs Hatched % ([1]; 2 ppm, 24 hr): 10%
Eggs Hatched % C* (% hatch, normalized to control) ([1]; 2 ppm, 24 hr): 100%
Eggs Hatched No. ([1]; 2 ppm, 24 hr): 66
Eggs Hatched % ([1]; 2 ppm, 72 hr): 14%
Eggs Hatched % C* (% hatch, normalized to control) ([1]; 2 ppm, 72 hr): 87%
Eggs Hatched No. ([1]; 2 ppm, 72 hr): 95
Eggs Hatched % ([1]; 2 ppm, 120 hr): 19%
Eggs Hatched % C* (% hatch, normalized to control) ([1]; 2 ppm, 120 hr): 86%
Eggs Hatched No. ([1]; 2 ppm, 120 hr): 128
Eggs Hatched % ([1]; 2 ppm, 168 hr): 22%
Eggs Hatched % C* (% hatch, normalized to control) ([1]; 2 ppm, 168 hr): 79%
Eggs Hatched No. ([1]; 2 ppm, 168 hr): 162
Eggs Hatched % ([1]; 5 ppm, 24 hr): 9%
Eggs Hatched % C* (% hatch, normalized to control) ([1]; 5 ppm, 24 hr): 90%
Eggs Hatched No. ([1]; 5 ppm, 24 hr): 62
Eggs Hatched % ([1]; 5 ppm, 72 hr): 13%
Eggs Hatched % C* (% hatch, normalized to control) ([1]; 5 ppm, 72 hr): 81%
Eggs Hatched No. ([1]; 5 ppm, 72 hr): 91
Eggs Hatched % ([1]; 5 ppm, 120 hr): 17%
Eggs Hatched % C* (% hatch, normalized to control) ([1]; 5 ppm, 120 hr): 77%
Eggs Hatched No. ([1]; 5 ppm, 120 hr): 129
Eggs Hatched % ([1]; 5 ppm, 168 hr): 21%
Eggs Hatched % C* (% hatch, normalized to control) ([1]; 5 ppm, 168 hr): 75%
Eggs Hatched No. ([1]; 5 ppm, 168 hr): 159
Eggs Hatched % ([1]; 10 ppm, 24 hr): 9%
Eggs Hatched % C* (% hatch, normalized to control) ([1]; 10 ppm, 24 hr): 90%
Eggs Hatched No. ([1]; 10 ppm, 24 hr): 60
Eggs Hatched % ([1]; 10 ppm, 72 hr): 13%
Eggs Hatched % C* (% hatch, normalized to control) ([1]; 10 ppm, 72 hr): 81%
Eggs Hatched No. ([1]; 10 ppm, 72 hr): 83
Eggs Hatched % ([1]; 10 ppm, 120 hr): 15%
Eggs Hatched % C* (% hatch, normalized to control) ([1]; 10 ppm, 120 hr): 68%
Eggs Hatched No. ([1]; 10 ppm, 120 hr): 103
Eggs Hatched % ([1]; 10 ppm, 168 hr): 18%
Eggs Hatched % C* (% hatch, normalized to control) ([1]; 10 ppm, 168 hr): 64%
Eggs Hatched No. ([1]; 10 ppm, 168 hr): 136
Eggs Hatched % ([1]; 20 ppm, 24 hr): 8%
Eggs Hatched % C* (% hatch, normalized to control) ([1]; 20 ppm, 24 hr): 80%
Eggs Hatched No. ([1]; 20 ppm, 24 hr): 51
Eggs Hatched % ([1]; 20 ppm, 72 hr): 11%
Eggs Hatched % C* (% hatch, normalized to control) ([1]; 20 ppm, 72 hr): 69%
Eggs Hatched No. ([1]; 20 ppm, 72 hr): 64
Eggs Hatched % ([1]; 20 ppm, 120 hr): 12%
Eggs Hatched % C* (% hatch, normalized to control) ([1]; 20 ppm, 120 hr): 55%
Eggs Hatched No. ([1]; 20 ppm, 120 hr): 79
Eggs Hatched % ([1]; 20 ppm, 168 hr): 15%
Eggs Hatched % C* (% hatch, normalized to control) ([1]; 20 ppm, 168 hr): 54%
Eggs Hatched No. ([1]; 20 ppm, 168 hr): 99
Eggs Hatched % ([1]; 40 ppm, 24 hr): 7%
Eggs Hatched % C* (% hatch, normalized to control) ([1]; 40 ppm, 24 hr): 70%
Eggs Hatched No. ([1]; 40 ppm, 24 hr): 48
Eggs Hatched % ([1]; 40 ppm, 72 hr): 10%
Eggs Hatched % C* (% hatch, normalized to control) ([1]; 40 ppm, 72 hr): 62%
Eggs Hatched No. ([1]; 40 ppm, 72 hr): 55
Eggs Hatched % ([1]; 40 ppm, 120 hr): 10%
Eggs Hatched % C* (% hatch, normalized to control) ([1]; 40 ppm, 120 hr): 45%
Eggs Hatched No. ([1]; 40 ppm, 120 hr): 63
Eggs Hatched % ([1]; 40 ppm, 168 hr): 11%
Eggs Hatched % C* (% hatch, normalized to control) ([1]; 40 ppm, 168 hr): 39%
Eggs Hatched No. ([1]; 40 ppm, 168 hr): 75
LC50 (ppm) ([2]; 48 hr): 125.86 ppm
LC50 (ppm) ([2]; 72 hr): 72.82 ppm
Days for pupation ([3]; 6.25 ppm): 24.6 days and 25.0 days
% wt reduction to control ([3]; 6.25 ppm, 7 days after feeding): 12.76% and 9.12%
Mean wt of survived larvae, mg ([3]; 6.25 ppm, 7 days after feeding): 41.56 (10) mg and 44.84 (10) mg
No. dead ([3]; 6.25 ppm, 7 days after feeding, 10 larvae): 0
% wt reduction to control [3, 5]: 5.69% and 7.74%
Mean wt of survived larvae, mg [3, 5]: 156.66 (10) mg and 135.14 (10) mg
No. dead ([3]; 6.25 ppm, 21 days after feeding, 10 larvae): 0
Days for pupation ([3]; 12.5 ppm): 25.2 days and 25.8 days
% wt reduction to control ([3]; 12.5 ppm, 7 days after feeding): 39.67% and 36.72%
Mean wt of survived larvae, mg ([3]; 12.5 ppm, 7 days after feeding): 28.74 (10) mg and 31.22 (10) mg
No. dead ([3]; 12.5 ppm, 7 days after feeding, 10 larvae): 0
% wt reduction to control [3, 6]: 32.84% and 33.04%
Mean wt of survived larvae, mg [3, 6]: 111.56 (10) mg and 98.08 (10) mg
No. dead ([3]; 12.5 ppm, 21 days after feeding, 10 larvae): 0
Days for pupation ([3]; 25 ppm): 27.25 days and 27.0 days
% wt reduction to control ([3]; 25 ppm, 7 days after feeding): 66.06% and 65.00%
Mean wt of survived larvae, mg ([3]; 25 ppm, 7 days after feeding): 16.17 (8) mg and 17.26 (6) mg
No. dead ([3]; 25 ppm, 7 days after feeding, 10 larvae): 2 and 4
% wt reduction to control ([3]; 25 ppm, 21 days after feeding): 70.08% and 70.62%
Mean wt of survived larvae, mg ([3]; 25 ppm, 21 days after feeding): 49.70 (6) mg and 43.03 (6) mg
No. dead ([3]; 25 ppm, 21 days after feeding, 10 larvae): 4
Days for pupation ([3]; 50 ppm in (Hepes)): 24.6 days
Mean wt of survived larvae, mg ([3]; 50 ppm in (Hepes), 7 days after feeding): 43.33 mg
No. dead ([3]; 50 ppm in (Hepes), 7 days after feeding, 10 larvae): 0
Mean wt of survived larvae, mg ([3]; 50 ppm in (Hepes), 21 days after feeding): 137.36 mg
No. dead ([3]; 50 ppm in (Hepes), 21 days after feeding, 10 larvae): 0
% wt reduction to control ([3]; 50 ppm, 7 days after feeding): 87.93% and 92.70%
Mean wt of survived larvae ([3]; 50 ppm, 7 days after feeding): 43.33 mg
Mean wt of survived larvae, mg ([3]; 50 ppm, 7 days after feeding): 5.75 (4) mg and 3.60 (1) mg
No. dead ([3]; 50 ppm, 7 days after feeding, 10 larvae): 6 and 8
# surviving [3, 7]: 10
No. dead [3, 7]: 0
% wt reduction to control ([3]; 50 ppm, 21 days after feeding): 0%
Mean wt of survived larvae ([3]; 50 ppm, 21 days after feeding): 137.36 mg
Mean wt of survived larvae, mg ([3]; 50 ppm, 21 days after feeding): 0 mg
No. dead ([3]; 50 ppm, 21 days after feeding, 10 larvae): 10
# surviving [3, 8]: 10
No. dead [3, 8]: 0
mortality at 6.25 ppm ([3]; 168 h, 6.25 ppm, 7 days after feeding): 0%
mortality at 12.5 ppm ([3]; 168 h, 12.5 ppm, 7 days after feeding): 0%
mortality at 25 ppm ([3]; 168 h, 25 ppm, 7 days after feeding): 20%
mortality at 50 ppm ([3]; 168 h, 50 ppm in (Hepes), 7 days after feeding): 0%
mortality at 6.25 ppm ([3]; 504 h, 6.25 ppm, 21 days after feeding): 0%
mortality at 12.5 ppm ([3]; 504 h, 12.5 ppm, 21 days after feeding): 0%
mortality at 25 ppm ([3]; 504 h, 25 ppm, 21 days after feeding): 40%
mortality at 50 ppm ([3]; 504 h, 50 ppm in (Hepes), 21 days after feeding): 0%
mortality at 100 ppm [4]: 20%
